Counter-ions that a name gives are not always drawn.
How the values were obtained:
Assay type in all cases: in vivo, male albino mice
monoamino oxidase (MAO) = monoamino oxidase (MAO) inhibiting effect, tryptamine hydrochloride mortality test; details: oral, mice; 1 hour before 250 mg/kg s.c. tryptamine hydrochloride; mortality after 18 hours
Method: The monoamino oxidase (MAO) inhibiting effect was determined in experiments in which a quantity of the compound to be tested was administered orally to five male albino mice. One hour later the animals were injected subcutaneously with tryptamine hydrochloride in a quantity of 250 mg/kg. […] Eighteen hours after the administration of tryptamine hydrochloride it was determined how many treated animals had died. The ED50 was determined from the results. By means of the method by Metysova, Arzneimittelforschung 13,- 1039 (1963) it was determined whether the oral administration of 200 mg of a compound to be tested to rats causes stomach ulceration.

[1] = test system: noradrenaline (tetrabenazine ptosis); assay: noradrenaline potentiation, tetrabenazine test; details: Mus musculus, oral, mice, 45 min before 80 mg/kg s.c. tetrabenazine, read-out: noradrenalin potentiation ED50
Method: The noradrenaline potentiation was determined in the tetrabenazine test. In this test a quantity of the compound to be tested was administered orally to five male albino mice. After 45 minutes the animals were injected subcutaneously with 80 mg/kg of tetrabenazine. After another 45 minutes the degree of ptosis was determined and compared with the ptosis of animals which had received tetrabenazine alone. The ED50 was determined from the results.

[2] = test system: serotonin (5-hydroxytryptophan); assay: serotonin potentiation, 5-hydroxytryptophan test; details: Mus musculus; oral, mice; 1 hour before 150 mg/kg i.p. dl-5-hydroxytryptophan
Method: The serotonin potentiation was determined in the 5-hydroxytryptophan test. For this purpose, the compounds to be tested were administered orally in a series of dosages to isolated male albino mice (5 mice per dosage) 1 hour prior to intraperitoneal administration of 150 mg/kg of dl-5-hydroxytryptophan. Thirty minutes after this threshold dosage the mice were observed individually and the following parameters were scored: stereotypical shaking of the head, spreading of the hindlegs, tremor, tendency to flee, lordosis, clonic stamping with the frontlegs. The ED50 value was calculated from the results.

| SMILES | MAO inhibition ED50 (monoamino oxidase (MAO)) | ED50 [1] | ED50 [2] |
| --- | --- | --- | --- |
| CCCCC(=NOCCN)c1ccc(Cl)cc1 [Cl H, reference compound] | > 215 mg/kg | 5.6 mg/kg | 12 mg/kg |
| Cl.N#CCCCCC(=NOCCN)c1ccc(Cl)cc1 [Cl CN, 4'-chloro-5-cyanovalerophenone O-(2-aminoethyl) oxime hydrochloride] | > 215 mg/kg | 6.8 mg/kg | 20 mg/kg |
| COCCOCCCCC(=NOCCN)c1ccc(Br)cc1 [Br OC2 H4 OCH3, 4'-bromo-5-(2-methoxyethoxy) valerophenone O-(2-aminoethyl) oxime fumarate (1 : 1)] | > 215 mg/kg | 6.6 mg/kg | 35 mg/kg |
| Cl.N#CCCCCCC(=NOCCN)c1ccc(Cl)cc1 [Cl CH2 CN, 4'-chloro-6-cyanocaprophenone O-(2-aminoethyl) oxime hydrochloride] | > 215 mg/kg | 11 mg/kg | 38 mg/kg |
| CCCCCC(=NOCCN)c1ccc(Cl)cc1 [Cl CH3, reference compound] | > 215 mg/kg | 1.9 mg/kg | 14 mg/kg |
| COCCCCC(=NOCCN)c1ccc(Br)cc1 [Br OCH3, 4'-bromo-5-methoxyvalerophenone O-(2-aminoethyl) oxime fumarate (1 : 1)] | > 215 mg/kg | 6.6 mg/kg | 22 mg/kg |
| CCOCCCCCC(=NOCCN)c1ccc(Cl)cc1.Cl [Cl CH2 OC2 H5, 4'-chloro-6-ethoxycaprophenone O-(2-aminoethyl) oxime hydrochloride] | > 215 mg/kg | 7.4 mg/kg | 54 mg/kg |
| COCCCCCC(=NOCCN)c1ccc(Cl)cc1.Cl [Cl C2 OCH3, 4'-chloro-6-methoxycaprophenone O-(2-aminoethyl) oxime hydrochloride] | > 215 mg/kg | 5.3 mg/kg | 36 mg/kg |
| CCCCCC(=NOCCN)c1ccc(Br)cc1 [Br CH3, reference compound] | > 215 mg/kg | 3.1 mg/kg | 10 mg/kg |
| CCOCCCCC(=NOCCN)c1ccc(Cl)cc1 [Cl OC2 H5, 4'-chloro-5-ethoxyvalerophenone O-(2-aminoethyl) oxime fumarate (1 : 1)] | > 215 mg/kg | 4.3 mg/kg | 36 mg/kg |
| Cl.N#CCCCCC(=NOCCN)c1ccc(Br)cc1 [Br CN, 4'-bromo-5-cyanovalerophenone O-(2-aminoethyl) oxime hydrochloride] | > 215 mg/kg | 11.2 mg/kg | 20 mg/kg |
| COCCOCCCCC(=NOCCN)c1ccc(Cl)cc1 [Cl OC2 H4 OCH3, 4'-chloro-5-(2-methoxyethoxy) valerophenone O-(2-aminoethyl) oxime fumarate (1 : 1)] | > 215 mg/kg | 4 mg/kg | 41 mg/kg |
